Measurements reported in paper PMC12741935 (Alzheimer's & Dementia, 2025).

System: 14 DIV mouse hippocampal neurons
Assay: oAβ-induced spine loss: drebrin-positive spine density in cultured hippocampal neurons
Assay type: cell-based
Description: For in vitro study, all animal procedures were conducted in accordance with the National Institutes of Health Guide for the Care and Use of Laboratory Animals using protocols approved by the institutional animal care and use committee at Stanford University. Timed pregnant C57BL/6 mice (Strain code: 027) were purchased from Charles River Laboratories and delivered on embryonic day 15 (E15), after which E16 embryos were used for primary hippocampal cultures. Primary embryonic mouse hippocampal neuron cultures were plated on poly‐D‐lysine‐coated (10 µg/mL) glass cover slips at 40,000 to 50,000 cells per well in 12‐well plates (Corning Life Sciences). Cells were seeded in plating medium DMEM/F12 supplemented with 10% fetal bovine serum and 1 × penicillin/streptomycin (PS) for 2 hours. Medium was then changed to B‐27 Plus Neuronal Culture System (Invitrogen) supplemented with PS, and 2 mM glutamine.
Immunofluorescence was performed as described previously.[24] Briefly, cultured hippocampal neurons were fixed in 4% formaldehyde for 20 minutes, permeabilized for 6 minutes in 80% ice‐cold methanol, and incubated with primary antibodies at 4°C overnight. Primary antibodies used were rabbit polyclonal MAP2 antibody for labeling dendrites (1:1000, #8707, Cell Signaling) and mouse monoclonal drebrin antibody for labeling dendritic spines (1:300; Cat#ADI‐NBA‐110, Enzo). Secondary antibodies consisted of donkey antirabbit or antimouse conjugated with either FITC or Cy3 (1:400; Jackson ImmunoResearch Laboratories, Inc.).
The cultured hippocampal neurons were imaged using an oil‐based 63x objective on a Leica Stellaris 5 confocal microscope. The cell nucleus was stained with DAPI and imaged at a wavelength of 405 nm (blue channel), the dendrites stained by MAP2 were imaged at 488 nm wavelength (green channel), and the drebrin‐stained spines were imaged at a wavelength of 561 nm (red channel). Z‐stack images of neurons were acquired at a 1024 × 1024 resolution, a zoom factor of 1.0, and a z‐step size of 0.5 µm. The number of steps for every z‐stack picture of a neuron were determined by the size of the neuron in the z‐plane, to ensure that the entirety of a neuron is captured in the picture. The areas to be imaged were selected systematically, starting from the top‐left region to proceeding to the bottom‐right region of a coverslip. For imaging, preference was given to field of views containing isolated neurons versus clustered neurons.
For quantification of drebrin‐positive spines in vitro, the images were analyzed using Imaris 9.3 software. Each image consisted of one major neuron and the “filaments” option in Imaris was applied to manually trace along the dendrites of every neuron, by placing starting and seed points at the beginning and along the length of the dendrites, respectively. The largest dendrite diameter (i.e., Starting Point) was set at 9.00 µm threshold while the thinnest dendrite diameter (i.e., Seed Point) was set at 1.00 µm threshold. After manually tracing the dendrites, the spines along the dendrites were assessed using the automatic “spine detection” function in Imaris. […] The spine density (number of spines/dendrite length) was then calculated for each neuron. All image acquisition and quantification were performed in a blind manner. For in vitro quantification of dendrite degeneration, Neurolucida (MBF Biosciences) in the manual mode was used to measure the total dendritic length, numbers of dendrites, and dendritic complexity for each neuron.

CC(C)NC(=O)N1CC[C@H](NC2=Nc3cc(F)ccc3N(CC(F)F)c3ccc(Cl)cc32)C1 [NVS‐PAK1‐1, (S)‐3‐([2‐chloro‐5‐(2,2‐difluoroethyl)‐8‐fluoro‐5H‐dibenzo[b,e][1,4]diazepin‐11‐yl]amino)‐N‐isopropylpyrrolidine‐1‐carboxamide]
EC50 (Mus musculus, Hippocampal neuron, 24 h, oAβ 1 µM, 24 h, 14 DIV neurons, read-out: EC50, concentration at which NVS-PAK1-1 reduced oAβ-induced loss of spine density by 50%): 2 nM
drebrin-stained spine density (spine counts per µm of dendritic length) (oAβ 1 µM + inhibitor 24 h vs oAβ alone, NVS-PAK1-1 10 nM, NVS-PAK1-C 10 nM, AZ13705339 1 nM, G5555 5 nM): significantly higher spine counts
